Drawing on PubChem BioAssay (NCI), this text covers TGI and GI50 for 18 compounds.

Structures are written as SMILES.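 In this assay, cells in 96-well plates receive the compound at five concentrations for 48 hours. Endpoints are linearly interpolated between the surrounding concentrations. At the GI50, growth is halved. The concentration for full growth arrest is given as TGI.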

Among the test systems are SF-539 CNS; SF-268 CNS; HCT-15 colon; SK-MEL-5 melanoma; TK-10 renal; EKVX NSCLC; RPMI-8226 leukemia; BT-549 breast; MDA-MB-231 breast; HS 578T breast.
Holding throughout (assay): NCI-60 cell line screen, 48 h

`C/C=C/C=N/N(C(=O)c1cc([N+](=O)[O-])cc([N+](=O)[O-])c1)C1=NC(c2ccccc2)C(c2ccccc2)=NN1` (stereo not given): the TGI in the test on SF-539 CNS is above 100 µM; with SF-268 CNS, above 100 µM; in the test with HCT-15 colon, above 100 µM; in the test on SK-MEL-5 melanoma, 81.8 µM; in the test with TK-10 renal it was above 100 µM; with EKVX NSCLC, above 100 µM. This compound also gave a TGI in the test on RPMI-8226 leukemia above 100 µM.
`Cc1ccccc1NC(=O)C(=O)C(c1cnc2ccc([N+](=O)[O-])cc2n1)[N+](=O)[O-]` (stereo not given): the TGI in the test on SF-539 CNS, with SF-268 CNS, in the test on HCT-15 colon, with SK-MEL-5 melanoma, in the test on TK-10 renal and in the test with EKVX NSCLC was above 100 µM each time. Also, the TGI in the test on RPMI-8226 leukemia was above 100 µM.
As for `CCC(C)OC(=O)C1C2CCC(O2)C1C(=O)O` (stereo not given), the TGI in the test on SF-539 CNS was above 100 µM; in the test on SF-268 CNS, above 80.8 µM; with HCT-15 colon it was above 56 µM; in the test on SK-MEL-5 melanoma, above 100 µM; with TK-10 renal it was above 100 µM; in the test with EKVX NSCLC, above 100 µM. This compound also returned a TGI in the test on RPMI-8226 leukemia above 68.7 µM.
On to `N=C1N(c2ccccc2)C(=O)C23CCCC2C13N1CCOCC1` (stereo not given), for which the TGI in the test on SF-539 CNS, with SF-268 CNS, in the test with HCT-15 colon, in the test on SK-MEL-5 melanoma, with EKVX NSCLC and in the test with RPMI-8226 leukemia was above 100 µM each time.
`CN=C1Nc2ccc(Cl)cc2C(c2ccccc2)=NN1C`: the TGI in the test with SF-539 CNS, in the test on SF-268 CNS, with HCT-15 colon, in the test on SK-MEL-5 melanoma, in the test on TK-10 renal and with EKVX NSCLC was above 100 µM throughout. This compound yielded a TGI with RPMI-8226 leukemia above 100 µM.
As to `COC(=O)C1=CN=C(C(=O)OC)NN1`, the TGI with SF-539 CNS, in the test on SF-268 CNS, in the test with HCT-15 colon, with SK-MEL-5 melanoma, in the test on TK-10 renal and in the test on RPMI-8226 leukemia was above 100 µM throughout.
In the case of `CN(C)C(=O)/N=c1\ss/c(=N\C(=S)N(C)C)n1-c1ccccc1`, the TGI is above 78.4 µM in the test on SF-539 CNS; above 100 µM in the test on SF-268 CNS; above 100 µM with HCT-15 colon; above 100 µM with SK-MEL-5 melanoma; 84.7 µM in the test with TK-10 renal; above 100 µM with EKVX NSCLC. Besides, the TGI in the test with RPMI-8226 leukemia was above 100 µM. Moreover, the GI50 was 0.389 µM in the test with SF-268 CNS and 0.291 µM with RPMI-8226 leukemia.
With `O=C(O)c1ccc2c(c1Nc1ccccc1)C(=O)c1ccccc1C2=O`, the GI50 in the test on SF-539 CNS was 56.2 µM; with SF-268 CNS, 34.6 µM; in the test on BT-549 breast it was 16.5 µM; with HCT-15 colon, 72.8 µM; with SK-MEL-5 melanoma it was 73.1 µM; with TK-10 renal it was 98.5 µM. Moreover, the GI50 was 19.9 µM in the test with EKVX NSCLC and 46.2 µM with MDA-MB-231 breast. Further, the TGI in the test on SF-539 CNS was above 100 µM; with SF-268 CNS it was above 100 µM; in the test on BT-549 breast it was 70 µM; with HCT-15 colon, above 100 µM; in the test with SK-MEL-5 melanoma it was above 100 µM; in the test on TK-10 renal it was above 100 µM. In addition, the TGI in the test with EKVX NSCLC and in the test with MDA-MB-231 breast was above 100 µM throughout.
With `COc1cc2nc(Sc3c([N+](=O)[O-])ncn3C)[nH]c2cc1OC`, the TGI in the test with SF-539 CNS was 47.5 µM; with SF-268 CNS, 69.9 µM; in the test with HCT-15 colon it was above 100 µM; in the test on SK-MEL-5 melanoma it was 63.6 µM; in the test with TK-10 renal it was 67.3 µM; in the test on EKVX NSCLC, 80.7 µM. Besides, the TGI in the test on RPMI-8226 leukemia is above 100 µM.
`O=C(O)c1ccc(O)c(N=Nc2cc(S(=O)(=O)O)c3ccccc3c2O)c1`: the TGI with SF-539 CNS is above 10 µM; in the test with SF-268 CNS, above 10 µM; in the test on HCT-15 colon, above 10 µM; in the test with SK-MEL-5 melanoma, above 100 µM; with TK-10 renal, above 100 µM; with EKVX NSCLC, above 100 µM. Moreover, in the test on RPMI-8226 leukemia, the TGI is above 100 µM.
Turning to `Oc1ccc(CNCc2ccccc2)c2cccnc12`, the TGI is above 100 µM in the test with HS 578T breast; above 65.6 µM with SF-268 CNS; above 100 µM with BT-549 breast; above 100 µM in the test with HCT-15 colon; above 100 µM in the test on EKVX NSCLC; 0.768 µM in the test on RPMI-8226 leukemia.
As to `NC(=O)N/N=C(\C(=O)C(=O)Nc1ccc(Cl)c(C(F)(F)F)c1)c1nc2ccc(C(=O)c3ccccc3)cc2[nH]c1=O`, the TGI in the test on SF-539 CNS, with SF-268 CNS, in the test with HCT-15 colon, in the test with SK-MEL-5 melanoma, in the test with TK-10 renal and with EKVX NSCLC was above 100 µM each time. Further, the TGI with RPMI-8226 leukemia is above 100 µM.
`O=C1C(=O)N(C(=O)c2ccc(Cl)c(Cl)c2)c2ccc(Cl)cc21`: the TGI in the test on SF-539 CNS, in the test on SF-268 CNS, in the test with SK-MEL-5 melanoma, in the test with TK-10 renal, in the test with EKVX NSCLC and with RPMI-8226 leukemia was above 100 µM in each case.
`Nc1ncnc(NC2C=C(CO)C(O)C2O)c1[N+](=O)[O-]` (stereo not given): the TGI with SF-539 CNS, in the test with SF-268 CNS, in the test on HCT-15 colon, in the test on SK-MEL-5 melanoma, in the test on TK-10 renal and in the test on EKVX NSCLC was above 100 µM in each case. The compound also came in with a TGI with RPMI-8226 leukemia above 100 µM.
For the compound `CC(C)NCC(O)COC(=O)c1cccs1` (stereo not given), the TGI with SF-268 CNS, in the test with HCT-15 colon, in the test on SK-MEL-5 melanoma, in the test on TK-10 renal, with EKVX NSCLC and with RPMI-8226 leukemia was above 100 µM each time.
As for `COC(=O)/C(C#N)=C1\CCC(O)N1C` (stereo not given), the TGI with SF-539 CNS, in the test on SF-268 CNS, in the test with TK-10 renal, in the test on EKVX NSCLC and with RPMI-8226 leukemia was above 100 µM each time.
Consider `COC(=O)C(C(=O)C(=O)Nc1ccccc1C(C)=O)c1nc2ccc(Cl)cc2[nH]c1=O` (stereo not given), for which the TGI in the test with SF-539 CNS, with SF-268 CNS, with HCT-15 colon, with SK-MEL-5 melanoma, with TK-10 renal and in the test with EKVX NSCLC was above 100 µM in each case. For the same compound, in the test on RPMI-8226 leukemia, the TGI was above 100 µM.
For the compound `Cc1oc2c(C)c(O)c3c(c2c1C1(C)OCCO1)C(=O)C=C(Cl)C3=O`, the TGI in the test with SF-539 CNS, in the test on SF-268 CNS, in the test with HCT-15 colon, with SK-MEL-5 melanoma, in the test with TK-10 renal and with EKVX NSCLC was above 100 µM in each case. Besides, the TGI with RPMI-8226 leukemia was above 100 µM.
